Laboratory results from patent publication US20110146678A1, “PROCESS FOR IMPROVING CRYSTALLINITY” (priority 2008, published 2011).
Where a name gives a salt, the structure may show the parent alone.

Assays:
Format in all cases: physicochemical
[1] = Respirable fraction / FPF by Next Generation Impactor (general summary); details: particles of the present invention vs prior art
Source text: The particle size distribution of the aerosol formulations according to the invention may be measured by conventional techniques, for example by using a Next Generation Impactor (NGI) with pre-separator for example by cascade impaction or by the “Twin Impinger” analytical process. As used herein reference to the “Twin Impinger” assay means “Determination of the deposition of the emitted dose in pressurised inhalations using apparatus A” as defined in British Pharmacopoeia 1988, pages A204-207, Appendix XVII C. Such methods involve filling the pre-separator with HPLC mobile phase and the cups of the NGI cups were coated with 1% v/v silicone oil in hexane to eliminate particle bounce. […] The mass of drug deposited on each part of the NGI can then be determined by HPLC. The FPD determined represents the mass of drug collected on stages 3-8 of the NGI. The FPF emitted dose is also determined. The aerosolisation efficiency as determined by percentage fine particle fraction (% FPF) or respirable fraction is also assessed.
Such techniques enable the “respirable fraction” of the aerosol formulations to be calculated. As used herein reference to “respirable fraction” means the amount of active ingredient collected in the lower chamber in the NGI per actuation expressed as a percentage of the total amount of active ingredient delivered per actuation using the method described above. […]

[2] = pMDI formulation, particle fraction distribution on NGI stages; details: stage 5 cut-off 1.36 μm
Experimental: Both samples were produced in a similar manner to sample 2 of Example 2. Sample 1 was prepared from atomization of a 3% solution of fluticasone propionate in 20% dichloromethane in methanol (3 g in 100 ml) and Sample 5 was prepared from atomization of 3% solution in acetone (3 g in 100 ml). […] The FPF values were 11.80% and 13.80% on stage 5 for samples 5 and 1 respectively compared with 6.20% for micronized material.

[3] = Aerosolisation efficiency of binary DPI formulations (0.4% w/w FP in lactose), NGI via Rotahaler; details: optimal particles
Experimental: The aerosolization efficiency of samples 2, 3 and 4 of engineered FP were evaluated using binary formulations containing 0.4% w/w FP.
Each binary formulation contained 0.016 g FP and 3.984 g lactose (ML001, DMV-Fonterra, Vehgel, Netherlands) and was prepared by geometric mixing. Following this, the blend was subsequently prepared using a Turbula T2F (Willy A Bachofen A G, Basel, Switzerland) at 46 rpm for 45 minutes.
Following content uniformity testing, 12.5±1 mg of each blend was loaded into size 3 hydroxypropylmethyl cellulose capsules (HPMC, Shionogi Qualicaps S A, Basingstoke, UK). The capsules were stored at 44% RH for 24 h prior to in vitro performance testing.
Testing was performed using a Next Generation Impactor (NGI) with pre-separator, which was connected to a vacuum pump (GE Motors). Prior to testing, the pre-separator was filled with 15 ml of mobile phase and the cups of the NGI cups were coated with 1% v/v silicone oil in hexane to eliminate particle bounce.
For each experiment, four individual capsules of the same formulation were discharged into the NGI at 60 Lpm for 4 s via a Rotahaler (GSK, Ware, UK) DPI device. Additionally, blisters from a Flixotide Diskus (GSK, Ware, UK) were emptied and loaded into size 3 HPMS capsules and discharged into a NGI at 60 Lpm1 for 4 s via a Rotahaler. Following aerosolization, the NGI apparatus was dismantled and the inhaler, capsules and each part of the NGI was washed down into known volumes of HPLC mobile phase.
The mass of drug deposited on each part of the NGI was determined by HPLC. This protocol was repeated three times for each blend, following which, the mass median aerodynamic diameter (MMAD), geometric standard deviation (GSD), fine particle dose (FPD) and fine particle fraction of the emitted dose (FPFED) were determined. The FPD represented the mass of drug that was collected on stages 3-8 of the NGI.

| FPF on stage 5 of the NGI [2] | FPF greater than micronized/milled [3] | FPF greater than precipitated material [3] | SMILES | increase in FPF compared to the prior art [1] |
| --- | --- | --- | --- | --- |
| – | – | – | CC(Cc1ccc(O)cc1)NCC(O)c1cc(O)cc(O)c1 (stereo not drawn) [Fenoterol hydrobromide] | 30-50% |
| 13.80% | – | – | CCC(=O)O[C@]1(C(=O)SCF)[C@H](C)C[C@H]2[C@@H]3C[C@H](F)C4=CC(=O)C=C[C@]4(C)[C@@]3(F)[C@@H](O)C[C@@]21C [Sample 1, fluticasone propionate] | – |
| 11.80% | – | – | CCC(=O)O[C@]1(C(=O)SCF)[C@H](C)C[C@H]2[C@@H]3C[C@H](F)C4=CC(=O)C=C[C@]4(C)[C@@]3(F)[C@@H](O)C[C@@]21C [Sample 5, fluticasone propionate] | – |
| – | 54% | over 200% | CCC(=O)O[C@]1(C(=O)SCF)[C@H](C)C[C@H]2[C@@H]3C[C@H](F)C4=CC(=O)C=C[C@]4(C)[C@@]3(F)[C@@H](O)C[C@@]21C [fluticasone propionate] | 50-60% |
